Here are results for four molecules from ChEMBL document CHEMBL1126979, “Studies toward structure-activity relationships of taxol: synthesis and cytotoxicity of taxol analogues with C-2 modified phenylisoserine side chains” (Bioorg Med Chem Lett, 1993).

As a reminder, the pIC50 is −log10 of the IC50, conventionally taken in molar units. A low value points to a large IC50.

pIC50: −log10 of the molar value.

The test deals with HCT-116. Nature of the test: Compound was evaluated by a cytotoxicity assay in HCT116 human colon carcinoma cell line. The class given is functional, cell-based.

`CO[C@@H](C(=O)O[C@H]1C[C@@]2(O)[C@@H](OC(=O)c3ccccc3)C3[C@](C)(C(=O)[C@H](OC(C)=O)C(=C1C)C2(C)C)[C@@H](O)C[C@H]1OC[C@@]31OC(C)=O)[C@@H](NC(=O)c1ccccc1)c1ccccc1` (some centres undefined): the pIC50 was 6.06.

For `CC(=O)O[C@H]1C(=O)[C@@]2(C)C([C@H](OC(=O)c3ccccc3)[C@]3(O)C[C@H](OC(=O)C[C@@H](NC(=O)c4ccccc4)c4ccccc4)C(C)=C1C3(C)C)[C@]1(OC(C)=O)CO[C@@H]1C[C@@H]2O` (some centres undefined), the negative logarithm of the IC50 (pIC50) is 6.53.

In the case of `CC(=O)O[C@H]1C(=O)[C@@]2(C)C([C@H](OC(=O)c3ccccc3)[C@]3(O)C[C@H](OC(=O)[C@H](F)[C@@H](NC(=O)c4ccccc4)c4ccccc4)C(C)=C1C3(C)C)[C@]1(OC(C)=O)CO[C@@H]1C[C@@H]2O` (some centres undefined), the pIC50 is 6.32.

In turn, `CC(=O)O[C@H]1C(=O)[C@@]2(C)[C@H]([C@H](OC(=O)c3ccccc3)[C@]3(O)C[C@H](OC(=O)[C@H](O)[C@@H](NC(=O)c4ccccc4)c4ccccc4)C(C)=C1C3(C)C)[C@]1(OC(C)=O)CO[C@@H]1C[C@@H]2O` [PACLITAXEL] had a pIC50 of 8.40.
